This is an account of results in US11713338B2, “Cyclic peptides multimers targeting α-4-β-7 integrin” (priority 2016, dated 2023).

SMILES strings stand for the structures.

Experiment [1] addresses T1, recombinant integrin α4β7 (Homo sapiens, UniProt P13612+P26010, DEL724-798).
T1 construct: purchased R&D Systems 5397-A3-050
T1 sequence (P13612 34-970 limits assumed): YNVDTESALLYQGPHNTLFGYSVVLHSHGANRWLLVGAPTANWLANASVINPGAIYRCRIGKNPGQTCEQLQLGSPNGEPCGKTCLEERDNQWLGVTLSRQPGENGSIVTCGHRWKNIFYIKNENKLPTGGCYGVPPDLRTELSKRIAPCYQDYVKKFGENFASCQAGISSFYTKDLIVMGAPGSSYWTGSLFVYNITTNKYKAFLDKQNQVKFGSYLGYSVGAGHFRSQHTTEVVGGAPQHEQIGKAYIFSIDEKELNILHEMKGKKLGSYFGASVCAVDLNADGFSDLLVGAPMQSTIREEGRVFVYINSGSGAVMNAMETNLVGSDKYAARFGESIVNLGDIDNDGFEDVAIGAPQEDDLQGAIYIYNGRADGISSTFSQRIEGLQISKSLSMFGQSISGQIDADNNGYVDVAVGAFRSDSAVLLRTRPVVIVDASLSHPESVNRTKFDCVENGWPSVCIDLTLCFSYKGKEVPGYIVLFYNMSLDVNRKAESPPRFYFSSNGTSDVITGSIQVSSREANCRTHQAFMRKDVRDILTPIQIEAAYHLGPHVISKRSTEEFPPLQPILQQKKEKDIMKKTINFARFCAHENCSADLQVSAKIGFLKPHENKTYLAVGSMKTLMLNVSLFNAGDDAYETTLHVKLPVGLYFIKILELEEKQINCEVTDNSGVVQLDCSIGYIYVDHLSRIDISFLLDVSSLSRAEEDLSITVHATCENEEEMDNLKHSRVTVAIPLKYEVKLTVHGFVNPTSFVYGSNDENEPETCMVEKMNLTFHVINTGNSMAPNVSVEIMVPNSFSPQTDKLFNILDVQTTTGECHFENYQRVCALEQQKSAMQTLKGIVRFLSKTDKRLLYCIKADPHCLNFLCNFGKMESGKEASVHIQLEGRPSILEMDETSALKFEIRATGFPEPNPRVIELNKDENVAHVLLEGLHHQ
T1 sequence (P26010 20-723 limits assumed): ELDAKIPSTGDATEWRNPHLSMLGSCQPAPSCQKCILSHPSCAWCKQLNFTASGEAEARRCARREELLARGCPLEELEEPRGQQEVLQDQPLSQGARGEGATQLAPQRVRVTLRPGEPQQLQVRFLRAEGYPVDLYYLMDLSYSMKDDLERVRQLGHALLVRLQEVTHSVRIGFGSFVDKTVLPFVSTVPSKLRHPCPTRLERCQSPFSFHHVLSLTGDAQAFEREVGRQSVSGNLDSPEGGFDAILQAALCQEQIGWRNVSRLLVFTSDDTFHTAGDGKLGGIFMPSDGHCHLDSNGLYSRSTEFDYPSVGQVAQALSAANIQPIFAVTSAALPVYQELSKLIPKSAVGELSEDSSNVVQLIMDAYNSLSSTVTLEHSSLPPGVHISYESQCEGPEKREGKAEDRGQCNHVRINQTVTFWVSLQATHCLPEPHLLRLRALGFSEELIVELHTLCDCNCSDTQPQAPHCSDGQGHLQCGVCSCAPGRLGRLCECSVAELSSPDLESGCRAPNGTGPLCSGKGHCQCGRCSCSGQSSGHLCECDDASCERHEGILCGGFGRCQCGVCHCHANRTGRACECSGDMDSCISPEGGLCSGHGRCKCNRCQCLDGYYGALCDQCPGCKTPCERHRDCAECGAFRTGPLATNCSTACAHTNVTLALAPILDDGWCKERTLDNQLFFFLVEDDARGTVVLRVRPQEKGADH
In words: Integrin α4β7—MAdCAM-1 ELISA competition assay. Particulars: for ELISA Assay Ratio b1/b7: ratio of a4b1 to a4b7 ELISA IC50; for IC50: read-out: ELISA a4b7 Assay IC50. The format is binding.

In experiment [2] the target is T2, recombinant integrin α4β1 (Homo sapiens, UniProt P05556+P13612).
T2 construct: purchased R&D Systems 5397-A3-050
T2 sequence (P05556 21-728 limits assumed, one chain of several): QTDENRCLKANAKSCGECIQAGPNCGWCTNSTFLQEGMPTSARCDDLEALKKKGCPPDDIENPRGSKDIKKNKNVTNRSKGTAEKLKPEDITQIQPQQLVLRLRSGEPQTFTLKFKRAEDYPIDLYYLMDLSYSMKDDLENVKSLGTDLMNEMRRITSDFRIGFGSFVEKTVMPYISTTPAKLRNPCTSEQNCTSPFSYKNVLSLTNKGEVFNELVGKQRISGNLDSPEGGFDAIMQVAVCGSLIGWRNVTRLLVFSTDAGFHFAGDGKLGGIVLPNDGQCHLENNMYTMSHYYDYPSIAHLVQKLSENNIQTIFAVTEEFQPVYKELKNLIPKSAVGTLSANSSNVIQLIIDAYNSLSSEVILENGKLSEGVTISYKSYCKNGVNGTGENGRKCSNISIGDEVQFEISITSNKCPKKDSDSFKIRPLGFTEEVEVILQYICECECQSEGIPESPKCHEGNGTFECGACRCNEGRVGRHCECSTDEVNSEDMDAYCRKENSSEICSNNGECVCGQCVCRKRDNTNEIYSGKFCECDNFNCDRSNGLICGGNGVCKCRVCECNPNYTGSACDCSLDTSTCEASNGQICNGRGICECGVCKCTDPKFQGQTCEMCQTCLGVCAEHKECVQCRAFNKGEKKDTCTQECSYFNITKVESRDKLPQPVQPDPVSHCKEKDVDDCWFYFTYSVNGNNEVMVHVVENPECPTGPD
In words: Integrin α4β1—VCAM-1 competition ELISA. Type of experiment: binding. Particulars: read-out: ELISA a4b1 Assay IC50. On the procedure: Integrin α4β1—VCAM-1 Competition ELISA
The plate was incubated at 4° C. overnight. […] The plate was then incubated for 1 hour at room temperature. The plate was washed three times with wash buffer (50 mM Tris, 100 mM NaCl, 1 mM MnCl2, 0.05% Tween). To each well, 50 μl of compound diluted in assay buffer was added by transfer from a compound serial dilution plate. […] The plate was incubated at room temperature with shaking (300 rpm) for 2 hours to reach binding equilibrium. Then the plate was washed three times in wash buffer and 100 μl anti-human IgG Fc specific-HRP (Abcam, Ab97225) diluted at 1:2000 in assay buffer was added to each well. The plate was incubated at room temperature for 1 hour under agitation.

Regarding `CC(C)C[C@@H]1NC(=O)c2cccc(c2)CNC(=O)[C@@H]2CCCN2[C@H](C(=O)NC(C)(C)C)[C@H](C)NC(=O)[C@H]([C@@H](C)O)NC(=O)[C@H](CC(=O)O)NC1=O` [Compound 358], in experiment [1], the “ELISA Assay Ratio b1/b7” value was 8.7 and the IC50 – broadly, the concentration at which inhibition is half-maximal – is 127 nM. Further, in experiment [2], the IC50 stood at 1110 nM.

For `COc1cccc(Cl)c1-c1ccc(C[C@@H]2NC(=O)[C@@H]3CCCN3[C@H](C(=O)NC(C)(C)C)[C@H](C)NC(=O)[C@H]([C@@H](C)O)NC(=O)[C@H](CC(=O)O)NC(=O)[C@H](CC(C)C)NC(=O)C[C@H](CCCCN)NC2=O)cc1` [Compound 269], in experiment [1], the “ELISA Assay Ratio b1/b7” value is recorded as 31.6. Besides, the values for the IC50 in experiment [1] and in experiment [2] were 56 nM and 1760 nM, respectively.

On to `CC(C)C[C@@H]1NC(=O)[C@H](Cc2ccc3ccccc3c2)NC(=O)[C@@H]2CCCN2[C@H](C(=O)NC(C)(C)C)[C@H](C)NC(=O)[C@H]([C@@H](C)O)NC(=O)[C@H](CC(=O)O)NC1=O` [Compound 10], for which, in experiment [1], the “ELISA Assay Ratio b1/b7” value turned out to be 1.3 and the IC50 was determined as 52 nM. For the same compound, the IC50 in experiment [2] was 70 nM.

Take `CC(C)C[C@@H]1NC(=O)[C@H](Cc2cccc3ccccc23)NC(=O)[C@@H]2CCCN2[C@H](C(=O)NC(C)(C)C)[C@H](C)NC(=O)[C@H]([C@@H](C)O)NC(=O)[C@H](CC(=O)O)NC1=O` [Compound 9]: in experiment [1], the “ELISA Assay Ratio b1/b7” value stood at 1.7 and the IC50 stood at 61 nM. The concentration for half-maximal inhibition (IC50) in experiment [2] stood at 106 nM.

In the case of `C=CCOc1ccc(C[C@@H]2NC(=O)[C@@H]3CCCN3[C@H](C(=O)NC(C)(C)C)[C@H](C)NC(=O)[C@H]([C@@H](C)O)NC(=O)[C@H](CC(=O)O)NC(=O)[C@H](CC(C)C)NC(=O)[C@@H](C(C)C)NC2=O)cc1` [Compound 166], in experiment [1], the “ELISA Assay Ratio b1/b7” value is recorded as 7.7 and the IC50 came out at 179 nM. Moreover, the IC50 in experiment [2] was determined as 1380 nM.

`CO[C@H](C)[C@@H]1NC(=O)[C@H](CC(=O)O)NC(=O)[C@H](CC(C)C)NC(=O)[C@H](Cc2ccccc2)NC(=O)[C@@H]2CCCN2[C@H](C(=O)NC(C)(C)C)[C@H](C)NC1=O` [Compound 40]: the “ELISA Assay Ratio b1/b7” value in experiment [1] worked out at 1.9. Further, the results for the IC50 in experiment [1] and in experiment [2] were 63 nM and 119 nM, respectively.

For the compound `CC(C)C[C@@H]1NC(=O)C[C@H](CCCCN)NC(=O)C2(CCNCC2)NC(=O)[C@@H]2CCCN2[C@H](C(=O)NC(C)(C)C)[C@H](C)NC(=O)[C@H]([C@@H](C)O)NC(=O)[C@H](CC(=O)O)NC1=O` [Compound 275], in experiment [1], the “ELISA Assay Ratio b1/b7” value is 7.7 and the concentration for half-maximal inhibition (IC50) amounted to 101 nM. For the same compound, the IC50 in experiment [2] turned out to be 779 nM.

In the case of `CC(C)C[C@@H]1NC(=O)[C@H](Cc2c[nH]cn2)NC(=O)[C@@H]2CCCN2[C@H](C(=O)NC(C)(C)C)[C@@H](CSc2ccccc2)NC(=O)[C@H](C(C)C)NC(=O)[C@H](CC(=O)O)NC1=O` [Compound 2], the “ELISA Assay Ratio b1/b7” value in experiment [1] was determined as 1.697. Also, the IC50 in experiment [2] is 185 nM.

As to `CC(C)C[C@@H]1NC(=O)c2ccc(-c3ccncc3)c(c2)CNC(=O)[C@H](Cc2ccc(O)cc2)NC(=O)[C@@H]2CCCN2[C@H](C(=O)NC(C)(C)C)[C@H](C)NC(=O)[C@H]([C@@H](C)O)NC(=O)[C@H](CC(=O)O)NC1=O` [Compound 337], in experiment [1], the “ELISA Assay Ratio b1/b7” value stood at 2.9 and the half-inhibitory concentration (IC50) came out at 61 nM. In experiment [2], the IC50 is 177 nM.

Regarding `CC(C)C[C@@H]1NC(=O)[C@H](Cc2ccccc2)NC(=O)[C@@H]2C[C@@H](F)CN2[C@H](C(=O)NC(C)(C)C)[C@H](C)NC(=O)[C@H]([C@@H](C)O)NC(=O)[C@H](CC(=O)O)NC1=O` [Compound 45], in experiment [1], the “ELISA Assay Ratio b1/b7” value came to 3.2 and the IC50 stood at 74 nM. Besides, the half-inhibitory concentration (IC50) in experiment [2] was found to be 238 nM.

For the compound `CC(C)C[C@@H]1NC(=O)[C@@H](CCCCN)NC(=O)[C@H](Cc2ccc(O)cc2)NC(=O)[C@@H]2CCCN2[C@H](C(=O)NC(C)(C)C)[C@H](C)NC(=O)[C@H]([C@@H](C)O)N(C)C(=O)[C@H](CC(=O)O)NC1=O` [Compound 121], in experiment [1], the “ELISA Assay Ratio b1/b7” value turned out to be 11.4 and the concentration for half-maximal inhibition (IC50) is 192 nM. For the same compound, in experiment [2], the half-maximal inhibitory concentration (IC50) was found to be 2190 nM.

Take `CC(C)C[C@@H]1NC(=O)[C@@H]2C[C@@H](O)CN2C(=O)[C@H](Cc2ccc(O)cc2)NC(=O)[C@@H]2CCCN2[C@H](C(=O)NC(C)(C)C)[C@H](C)NC(=O)[C@H]([C@@H](C)O)NC(=O)[C@H](CC(=O)O)NC1=O` [Compound 139]: in experiment [1], the “ELISA Assay Ratio b1/b7” value is recorded as 0.7 and the IC50 stood at 100 nM. Moreover, the 50% inhibitory concentration (IC50) in experiment [2] was 73 nM.

`CC(C)C[C@@H]1NC(=O)CN(C)C(=O)[C@H](Cc2cccc3ccccc23)NC(=O)[C@@H]2CCCN2[C@H](C(=O)NC(C)(C)C)[C@H](C)NC(=O)[C@H]([C@@H](C)O)NC(=O)[C@H](CC(=O)O)NC1=O` [Compound 117]: in experiment [1], the “ELISA Assay Ratio b1/b7” value came out at 8.7 and the IC50 stood at 158 nM. Moreover, the IC50 in experiment [2] is 1380 nM.

On to `CC(C)C[C@@H]1NC(=O)C[C@H](CCCCN)NC(=O)[C@H](Cc2ccc(I)cc2)NC(=O)[C@@H]2CCCN2[C@H](C(=O)NC(C)(C)C)[C@H](C)NC(=O)[C@H]([C@@H](C)O)NC(=O)[C@H](CC(=O)O)NC1=O` [Compound 260], for which, in experiment [1], the “ELISA Assay Ratio b1/b7” value is recorded as 58.1. For the same compound, the 50% inhibitory concentration (IC50) in experiment [1] is 165 nM; in experiment [2] it was 9560 nM.

Consider `CC(C)C[C@@H]1NC(=O)c2cc(cc(-c3ccncc3)c2)CNC(=O)[C@@H]2CCCN2[C@H](C(=O)NC(C)(C)C)[C@H](C)NC(=O)[C@H]([C@@H](C)O)NC(=O)[C@H](CC(=O)O)NC1=O` [Compound 362], for which the “ELISA Assay Ratio b1/b7” value in experiment [1] is 5.6. The figures for the IC50 in experiment [1] and in experiment [2] were 43 nM and 238 nM, respectively.

As for `CC(C)C[C@@H]1NC(=O)[C@H]2CCCCN2C(=O)[C@H](Cc2cscn2)NC(=O)[C@@H]2CCCN2[C@H](C(=O)NC(C)(C)C)[C@H](C)NC(=O)[C@H]([C@@H](C)O)NC(=O)[C@H](CC(=O)O)NC1=O` [Compound 131], in experiment [1], the “ELISA Assay Ratio b1/b7” value stood at 3.1 and the concentration for half-maximal inhibition (IC50) is 26 nM. In addition, the half-maximal inhibitory concentration (IC50) in experiment [2] is 80 nM.

Regarding `CC(C)C[C@@H]1NC(=O)[C@H](Cc2ccc(O)cc2)NC(=O)[C@@H]2CCCN2[C@H](C(=O)NC(C)(C)C)[C@H](C)NC(=O)[C@H](C(C)(C)S)NC(=O)[C@H](CC(=O)O)NC1=O` [Compound 55], in experiment [1], the “ELISA Assay Ratio b1/b7” value is 1.1 and the IC50 was found to be 113 nM. Further, the half-inhibitory concentration (IC50) in experiment [2] came out at 119 nM.

Turning to `CC(C)C[C@@H]1NC(=O)CN(C)C(=O)[C@H](Cc2csc(-c3ccccn3)n2)NC(=O)[C@@H]2CCCN2[C@H](C(=O)NC(C)(C)C)[C@H](C)NC(=O)[C@H]([C@@H](C)O)NC(=O)[C@H](CC(=O)O)NC1=O` [Compound 179], in experiment [1], the “ELISA Assay Ratio b1/b7” value was 15.2. Further, the 50% inhibitory concentration (IC50) in experiment [2] is 2660 nM.

For `Cc1cccc(C)c1-c1cccc(C[C@@H]2NC(=O)[C@@H]3CCCN3[C@H](C(=O)NC(C)(C)C)[C@H](C)NC(=O)[C@H]([C@@H](C)O)NC(=O)[C@H](CC(=O)O)NC(=O)[C@H](CC(C)C)NC(=O)C[C@H](CCCCN)NC2=O)c1` [Compound 265], in experiment [1], the “ELISA Assay Ratio b1/b7” value was found to be 46.2 and the IC50 was 39 nM. For the same compound, in experiment [2], the IC50 came out at 1820 nM.
